Source: ChEMBL document CHEMBL5120927, “LEGO-Lipophosphonoxins: A Novel Approach in Designing Membrane Targeting Antimicrobials” (J Med Chem, 2022)
Values after ≈ are worked out from the molar mass of the structure shown.

Legend:
Staphylococcus aureus [1] = experiment: Antibacterial activity against wild type methicillin resistant Staphylococcus aureus 4561/A assessed as reduction in microbial growth incubated for 24 hrs by microdilution assay; type: functional
Staphylococcus aureus [2] = experiment: Antibacterial activity against wild type methicillin resistant Staphylococcus aureus 4968/C assessed as reduction in microbial growth incubated for 24 hrs by microdilution assay; type: functional
Staphylococcus aureus [3] = experiment: Antibacterial activity against wild type methicillin resistant Staphylococcus aureus 5017/C assessed as reduction in microbial growth incubated for 24 hrs by microdilution assay; type: functional
Staphylococcus aureus [4] = experiment: Antibacterial activity against wild type Staphylococcus aureus 4557/A assessed as reduction in microbial growth incubated for 24 hrs by microdilution assay; type: functional
Staphylococcus aureus [5] = experiment: Antibacterial activity against […] Staphylococcus aureus 4463/A assessed as reduction in microbial growth incubated for 24 hrs by microdilution assay; type: functional
Staphylococcus aureus [6] = experiment: Antibacterial activity against wild type Staphylococcus aureus 4904/C assessed as reduction in microbial growth incubated for 24 hrs by microdilution assay; type: functional
Staphylococcus aureus [7] = experiment: Antibacterial activity against wild type Staphylococcus aureus 4883/C assessed as reduction in microbial growth incubated for 24 hrs by microdilution assay; type: functional
Staphylococcus aureus [8] = experiment: Antibacterial activity against […] Staphylococcus aureus 4460/A assessed as reduction in microbial growth incubated for 24 hrs by microdilution assay; type: functional
Staphylococcus aureus [9] = experiment: Antibacterial activity against wild type Staphylococcus aureus 4482/A assessed as reduction in microbial growth incubated for 24 hrs by microdilution assay; type: functional
Staphylococcus aureus [10] = experiment: Antibacterial activity against wild type Staphylococcus aureus 4566/A assessed as reduction in microbial growth incubated for 24 hrs by microdilution assay; type: functional
Staphylococcus aureus [11] = experiment: Antibacterial activity against wild type Staphylococcus aureus 4504/A assessed as reduction in microbial growth incubated for 24 hrs by microdilution assay; type: functional
Staphylococcus aureus [12] = experiment: Antibacterial activity against wild type Staphylococcus aureus 4740/B assessed as reduction in microbial growth incubated for 24 hrs by microdilution assay; type: functional
Staphylococcus aureus [13] = experiment: Antibacterial activity against wild type Staphylococcus aureus 4717/B assessed as reduction in microbial growth incubated for 24 hrs by microdilution assay; type: functional
Staphylococcus aureus [14] = experiment: Antibacterial activity against wild type Staphylococcus aureus 4738/B assessed as reduction in microbial growth incubated for 24 hrs by microdilution assay; type: functional
Staphylococcus aureus [15] = experiment: Antibacterial activity against […] Staphylococcus aureus 4461/A assessed as reduction in microbial growth incubated for 24 hrs by microdilution assay; type: functional
Staphylococcus aureus [16] = experiment: Antibacterial activity against wild type Staphylococcus aureus 4679/B assessed as reduction in microbial growth incubated for 24 hrs by microdilution assay; type: functional
Staphylococcus aureus [17] = experiment: Antibacterial activity against wild type Staphylococcus aureus 4502/A assessed as reduction in microbial growth incubated for 24 hrs by microdilution assay; type: functional
Staphylococcus aureus [18] = experiment: Antibacterial activity against wild type Staphylococcus aureus 4515/A assessed as reduction in microbial growth incubated for 24 hrs by microdilution assay; type: functional
Staphylococcus aureus [19] = experiment: Antibacterial activity against wild type Staphylococcus aureus 5079/C assessed as reduction in microbial growth incubated for 24 hrs by microdilution assay; type: functional
Staphylococcus aureus [20] = experiment: Antibacterial activity against wild type Staphylococcus aureus 4788/B assessed as reduction in microbial growth incubated for 24 hrs by microdilution assay; type: functional
Staphylococcus aureus [21] = experiment: Antibacterial activity against wild type Staphylococcus aureus 78/CF assessed as reduction in microbial growth incubated for 24 hrs by microdilution assay; type: functional
Staphylococcus aureus [22] = experiment: Antibacterial activity against wild type Staphylococcus aureus 77/CF assessed as reduction in microbial growth incubated for 24 hrs by microdilution assay; type: functional
Staphylococcus aureus [23] = experiment: microbe, parasite or virus in culture; conditions: 4862/C, 24 h
Description: Antibacterial activity against wild type Staphylococcus aureus 4862/C assessed as reduction in microbial growth incubated for 24 hrs by microdilution assay

Staphylococcus aureus [24] = experiment: microbe, parasite or virus in culture; conditions: 4880/C, 24 h
Description: Antibacterial activity against wild type Staphylococcus aureus 4880/C assessed as reduction in microbial growth incubated for 24 hrs by microdilution assay

Enterococcus faecalis = experiment: Antibacterial activity against Enterococcus faecalis ATCC 29212 = CCM 4224 assessed as inhibition of bacterial growth incubated for 24 hrs by microdilution assay; type: functional
Staphylococcus aureus [25] = experiment: Antibacterial activity against Staphylococcus aureus ATCC 29213 = CCM 4223 assessed as inhibition of bacterial growth incubated for 24 hrs by microdilution assay; type: functional
Staphylococcus aureus [26] = experiment: Antibacterial activity against Staphylococcus aureus ATCC 29213 = CCM 4223 assessed as inhibition of bacterial growth incubated for 24 hrs in presence of BSA by microdilution assay; type: functional
Escherichia coli [27] = experiment: Antibacterial activity against Escherichia coli ATCC 25922 = CCM 3954 assessed as inhibition of bacterial growth incubated for 24 hrs by microdilution assay; type: functional
Escherichia coli [28] = experiment: Antibacterial activity against Escherichia coli ATCC 25922 = CCM 3954 assessed as inhibition of bacterial growth incubated for 24 hrs in presence of BSA by microdilution assay; type: functional
Pseudomonas aeruginosa [29] = experiment: Antibacterial activity against Pseudomonas aeruginosa ATCC 27853 = CCM 3955 assessed as inhibition of bacterial growth incubated for 24 hrs by microdilution assay; type: functional
[30] = Hemolytic activity in human RBC assessed as haemoglobin release measured after 3 hr; type: toxicity, cell-based, Erythrocyte; conditions: red blood cells (erythrocytes)
[31] = Gradient chromatographic hydrophobicity index of the compound at pH 3.7 by HPLC analysis; type: ADME
[32] = test system: Staphylococcus epidermidis; experiment: Antibacterial activity against Staphylococcus epidermidis CCM 7221 assessed as inhibition of bacterial growth incubated for 24 hrs by microdilution assay; type: functional
Staphylococcus aureus [33] = experiment: Antibacterial activity against methicillin resistant Staphylococcus aureus 4591/A assessed as reduction in microbial growth incubated for 24 hrs by microdilution assay; type: functional
Escherichia coli [34] = experiment: Antibacterial activity against multidrug-resistant Escherichia coli CE5556 expressing CTX-M-15 assessed as reduction in microbial growth incubated for 24 hrs by microdilution assay; type: functional
Enterococcus faecium = experiment: Antibacterial activity against vancomycin resistant Enterococcus faecium 419/ANA assessed as reduction in microbial growth incubated for 24 hrs by microdilution assay; type: functional
Pseudomonas aeruginosa [35] = experiment: Antibacterial activity against multidrug-resistant Pseudomonas aeruginosa assessed as reduction in microbial growth incubated for 24 hrs by microdilution assay; type: functional
[36] = Cytotoxicity against human HepG2 cells assessed as reduction in cell viability; type: toxicity, cell-based

SMILES | MIC (Staphylococcus aureus [3]) [µg/mL] | MIC (Staphylococcus aureus [4]) [µg/mL] | MIC (Staphylococcus aureus [5]) [µg/mL] | MIC (Staphylococcus aureus [6]) [µg/mL] | MIC (Staphylococcus aureus [7]) [µg/mL] | MIC (Staphylococcus aureus [10]) [µg/mL] | MIC (Enterococcus faecalis) [µg/mL] | MIC (Staphylococcus aureus [25]) [µg/mL] | MIC (Staphylococcus aureus [26]) [µg/mL] | MIC (Escherichia coli [27]) [µg/mL] | MIC (Escherichia coli [28]) [µg/mL] | MIC (Pseudomonas aeruginosa [29]) [µg/mL] | HC50 at 3 h [30] [µg/mL] | CHI [31] | MIC [32] [µg/mL] | MIC (Staphylococcus aureus [33]) [µg/mL] | MIC (Escherichia coli [34]) [µg/mL] | MIC (Enterococcus faecium) [µg/mL] | MIC (Pseudomonas aeruginosa [35]) [µg/mL] | CC50 [36] [µM] | other results
Cc1onc(-c2ccccc2)c1C(=O)N[C@@H]1C(=O)N2[C@@H]1SC(C)(C)[C@@H]2C(=O)O [OXACILLIN] | > 16 | 0.25 | 0.25 | 0.25 | 0.25 | 0.25 |  |  |  |  |  |  |  |  |  |  |  |  |  |  | MIC (Staphylococcus aureus [1]): > 8 µg/mL; MIC (Staphylococcus aureus [2]): > 16 µg/mL; MIC (Staphylococcus aureus [8]): 0.25 µg/mL; MIC (Staphylococcus aureus [9]): 0.25 µg/mL; MIC (Staphylococcus aureus [11]): 0.25 µg/mL; MIC (Staphylococcus aureus [12]): 0.25 µg/mL; MIC (Staphylococcus aureus [13]): 0.25 µg/mL; MIC (Staphylococcus aureus [14]): 0.25 µg/mL; MIC (Staphylococcus aureus [15]): 0.25 µg/mL; MIC (Staphylococcus aureus [16]): 0.25 µg/mL; MIC (Staphylococcus aureus [17]): 0.25 µg/mL; MIC (Staphylococcus aureus [18]): 0.25 µg/mL; MIC (Staphylococcus aureus [19]): 0.25 µg/mL; MIC (Staphylococcus aureus [20]): 0.125 µg/mL; MIC (Staphylococcus aureus [21]): 0.25 µg/mL; MIC (Staphylococcus aureus [22]): 0.25 µg/mL; MIC (Staphylococcus aureus [23]): 0.25 µg/mL (≈ 0.623 µM); MIC (Staphylococcus aureus [24]): 0.25 µg/mL (≈ 0.623 µM)
O=C(O)c1cn(C2CC2)c2cc(N3CCNCC3)c(F)cc2c1=O [CIPROFLOXACIN] | > 8 | 0.25 | 0.25 | 0.25 | 0.25 | 0.25 |  |  |  |  |  |  |  |  |  |  |  |  |  |  | MIC (Staphylococcus aureus [1]): > 8 µg/mL; MIC (Staphylococcus aureus [2]): > 8 µg/mL; MIC (Staphylococcus aureus [11]): 0.25 µg/mL; MIC (Staphylococcus aureus [12]): 0.5 µg/mL; MIC (Staphylococcus aureus [13]): 0.25 µg/mL; MIC (Staphylococcus aureus [14]): 0.25 µg/mL; MIC (Staphylococcus aureus [15]): 0.25 µg/mL; MIC (Staphylococcus aureus [16]): 0.25 µg/mL; MIC (Staphylococcus aureus [19]): 0.25 µg/mL; MIC (Staphylococcus aureus [20]): 0.063 µg/mL; MIC (Staphylococcus aureus [21]): 0.25 µg/mL; MIC (Staphylococcus aureus [22]): 0.5 µg/mL; MIC (Staphylococcus aureus [23]): 0.25 µg/mL (≈ 0.754 µM); MIC (Staphylococcus aureus [24]): 0.25 µg/mL (≈ 0.754 µM)
CC1(C)S[C@@H]2[C@H](NC(=O)[C@H](N)c3ccccc3)C(=O)N2[C@H]1C(=O)O [AMPICILLIN] | > 16 | 0.5 | 0.5 | 0.5 | 0.5 | 0.5 |  |  |  |  |  |  |  |  |  |  |  |  |  |  | MIC (Staphylococcus aureus [8]): 1 µg/mL; MIC (Staphylococcus aureus [9]): 1 µg/mL; MIC (Staphylococcus aureus [11]): 0.5 µg/mL; MIC (Staphylococcus aureus [12]): 0.5 µg/mL; MIC (Staphylococcus aureus [13]): 0.5 µg/mL; MIC (Staphylococcus aureus [14]): 0.5 µg/mL; MIC (Staphylococcus aureus [15]): 1 µg/mL; MIC (Staphylococcus aureus [16]): 1 µg/mL; MIC (Staphylococcus aureus [17]): 0.5 µg/mL; MIC (Staphylococcus aureus [18]): 0.5 µg/mL; MIC (Staphylococcus aureus [19]): 0.5 µg/mL; MIC (Staphylococcus aureus [20]): 0.5 µg/mL; MIC (Staphylococcus aureus [21]): 0.5 µg/mL; MIC (Staphylococcus aureus [22]): 0.5 µg/mL; MIC (Staphylococcus aureus [23]): 1 µg/mL (≈ 2.86 µM); MIC (Staphylococcus aureus [24]): 0.5 µg/mL (≈ 1.43 µM)
CCC/C=C\CCOP(=O)(CCN(CCCN)CCCN)OCCCOP(=O)(CCN(CCCN)CCCN)OCC/C=C\CCC.Cl.Cl.Cl.Cl.Cl.Cl (stereo unspecified) |  |  |  |  |  |  | > 128 | 64 | 64 | > 128 | > 128 | 128 | > 200 | 23.4 | 8 | 32 | > 128 | > 128 | 128 | > 99 | 
CCCC/C=C\CCOP(=O)(CCN(CCCN)CCCN)OCCCCCCOP(=O)(CCN(CCCN)CCCN)OCC/C=C\CCCC.Cl.Cl.Cl.Cl.Cl.Cl (stereo unspecified) |  |  |  |  |  |  | 16 | 1 | 4 | 2 | 4 | 16 | 34.8 | 33.8 | 0.5 | 1 | 2 | 64 | 16 | 92.5 | 
CCCCCCCOP(=O)(CCN(CCCN)CCCN)OCCCCCCCOP(=O)(CCN(CCCN)CCCN)OCCCCCCC.Cl.Cl.Cl.Cl.Cl.Cl (stereo unspecified) |  |  |  |  |  |  | 4 | 1 | 1 | 8 | 1 | 16 | 287 | 33.9 | 0.5 | 1 | 2 | 64 | 8 | 89.5 | 
CCCCCCOP(=O)(CCN(CCCN)CCCN)OCCCCCCCCCCOP(=O)(CCN(CCCN)CCCN)OCCCCCC.Cl.Cl.Cl.Cl.Cl.Cl (stereo unspecified) |  |  |  |  |  |  | 4 | 0.5 | 3 | 0.5 | 1 | 4 | 743 | 34.8 | 0.5 | 1 | 8 | 32 | 8 | 17.5 | 
Cl.Cl.Cl.Cl.Cl.Cl.NCCCN(CCCN)CCP(=O)(OCCCOP(=O)(CCN(CCCN)CCCN)OCC12CC3CC(CC(C3)C1)C2)OCC12CC3CC(CC(C3)C1)C2 (stereo unspecified) |  |  |  |  |  |  | 8 | 4 | 4 | 8 | 8 | 64 | > 500 | 32.6 | 2 | 4 | 16 | 64 | 16 | > 99 | 
